# Data taken from patent US20020049205A1, “Pyrazole antimicrobial agents” (priority 2000, published 2002).
# Experiments:
# [1] = tested on: S. au; assay: Minimum Inhibitory Concentration assay, S. au; type: cell-based; settings: LB medium, 16 hours, 37° C.
# Protocol: (§1) For Minimum Inhibitory Concentration (MIC) determinations for selected bacteria, log phase growing bacteria are re-suspended at 1×10^5 bacteria per mL in LB medium. The compound is added and two-fold dilutions are made. The final volume in the 96-well plate is about 100 μL. The plate is incubated at 37° C. in the dark with shaking. After 16 hours of incubation, growth is monitored by reading A600 or by visual inspection. MIC is defined as the minimum concentration of drug resulting in inhibition of visible growth of bacterial under the conditions described (above) in National Committee for Clinical Laboratory Standards 1993. Methods for dilution antimicrobial susceptibility tests for bacteria that grow aerobically. Approved standard M7-A3; National Committee for Clinical Laboratory Standards: Villanova, Pa.
# as §1, with “MIC” for “Minimum Inhibitory Concentration (MIC)”
# [2] = tested on: E.c(tolC); assay: Minimum Inhibitory Concentration assay, E.c(tolC); type: cell-based; settings: 16 h, read-out: MIC (μM) E.c(tolC)
# Protocol: as §1
# as §1, with “MIC” for “Minimum Inhibitory Concentration (MIC)”
# [3] = target: T1, Sigma^70 saturated E. coli RNA Polymerase (Escherichia coli, UniProt P0A7Z4+P0A800+P0A8T7+P0A8V2); assay: IC50 assay, inhibition of RNA polymerase; type: biochemical
# T1 construct: purchased Epicenter
# T1 sequence (P0A8V2 whole entry): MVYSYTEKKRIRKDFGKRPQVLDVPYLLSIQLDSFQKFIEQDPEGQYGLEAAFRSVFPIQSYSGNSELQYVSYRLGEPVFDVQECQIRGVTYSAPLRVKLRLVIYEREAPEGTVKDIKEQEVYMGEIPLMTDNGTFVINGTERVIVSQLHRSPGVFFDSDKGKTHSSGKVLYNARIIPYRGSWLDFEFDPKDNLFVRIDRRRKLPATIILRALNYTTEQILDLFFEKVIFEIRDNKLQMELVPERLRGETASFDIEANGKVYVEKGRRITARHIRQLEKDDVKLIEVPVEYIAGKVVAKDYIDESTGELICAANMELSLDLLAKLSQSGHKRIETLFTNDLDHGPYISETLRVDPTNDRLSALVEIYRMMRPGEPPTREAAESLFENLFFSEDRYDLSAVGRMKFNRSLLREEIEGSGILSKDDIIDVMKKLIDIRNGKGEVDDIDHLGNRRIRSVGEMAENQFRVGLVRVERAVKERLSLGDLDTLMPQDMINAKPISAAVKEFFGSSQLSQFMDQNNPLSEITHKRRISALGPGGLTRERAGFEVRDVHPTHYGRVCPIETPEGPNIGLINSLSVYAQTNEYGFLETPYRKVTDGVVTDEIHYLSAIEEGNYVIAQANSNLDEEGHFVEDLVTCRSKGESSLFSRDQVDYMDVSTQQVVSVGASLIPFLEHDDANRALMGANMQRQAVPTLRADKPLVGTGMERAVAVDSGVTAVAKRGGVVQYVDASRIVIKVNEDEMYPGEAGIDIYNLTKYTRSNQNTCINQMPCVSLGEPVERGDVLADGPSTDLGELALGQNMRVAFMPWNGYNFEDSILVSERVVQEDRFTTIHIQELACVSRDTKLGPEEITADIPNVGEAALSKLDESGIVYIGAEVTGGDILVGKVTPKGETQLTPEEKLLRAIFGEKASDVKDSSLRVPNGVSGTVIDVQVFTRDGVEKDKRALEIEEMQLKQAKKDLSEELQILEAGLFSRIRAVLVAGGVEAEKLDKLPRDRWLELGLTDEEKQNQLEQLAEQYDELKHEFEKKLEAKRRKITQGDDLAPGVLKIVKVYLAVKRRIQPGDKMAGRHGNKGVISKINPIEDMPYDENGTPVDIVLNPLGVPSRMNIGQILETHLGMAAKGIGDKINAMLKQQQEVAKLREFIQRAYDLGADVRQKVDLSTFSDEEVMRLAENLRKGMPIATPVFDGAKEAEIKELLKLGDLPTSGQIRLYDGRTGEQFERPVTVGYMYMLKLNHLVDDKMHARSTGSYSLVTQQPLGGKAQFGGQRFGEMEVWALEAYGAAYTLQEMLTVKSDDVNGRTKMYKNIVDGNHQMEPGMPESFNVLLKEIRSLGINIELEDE
# T1 sequence (P0A8T7 whole entry): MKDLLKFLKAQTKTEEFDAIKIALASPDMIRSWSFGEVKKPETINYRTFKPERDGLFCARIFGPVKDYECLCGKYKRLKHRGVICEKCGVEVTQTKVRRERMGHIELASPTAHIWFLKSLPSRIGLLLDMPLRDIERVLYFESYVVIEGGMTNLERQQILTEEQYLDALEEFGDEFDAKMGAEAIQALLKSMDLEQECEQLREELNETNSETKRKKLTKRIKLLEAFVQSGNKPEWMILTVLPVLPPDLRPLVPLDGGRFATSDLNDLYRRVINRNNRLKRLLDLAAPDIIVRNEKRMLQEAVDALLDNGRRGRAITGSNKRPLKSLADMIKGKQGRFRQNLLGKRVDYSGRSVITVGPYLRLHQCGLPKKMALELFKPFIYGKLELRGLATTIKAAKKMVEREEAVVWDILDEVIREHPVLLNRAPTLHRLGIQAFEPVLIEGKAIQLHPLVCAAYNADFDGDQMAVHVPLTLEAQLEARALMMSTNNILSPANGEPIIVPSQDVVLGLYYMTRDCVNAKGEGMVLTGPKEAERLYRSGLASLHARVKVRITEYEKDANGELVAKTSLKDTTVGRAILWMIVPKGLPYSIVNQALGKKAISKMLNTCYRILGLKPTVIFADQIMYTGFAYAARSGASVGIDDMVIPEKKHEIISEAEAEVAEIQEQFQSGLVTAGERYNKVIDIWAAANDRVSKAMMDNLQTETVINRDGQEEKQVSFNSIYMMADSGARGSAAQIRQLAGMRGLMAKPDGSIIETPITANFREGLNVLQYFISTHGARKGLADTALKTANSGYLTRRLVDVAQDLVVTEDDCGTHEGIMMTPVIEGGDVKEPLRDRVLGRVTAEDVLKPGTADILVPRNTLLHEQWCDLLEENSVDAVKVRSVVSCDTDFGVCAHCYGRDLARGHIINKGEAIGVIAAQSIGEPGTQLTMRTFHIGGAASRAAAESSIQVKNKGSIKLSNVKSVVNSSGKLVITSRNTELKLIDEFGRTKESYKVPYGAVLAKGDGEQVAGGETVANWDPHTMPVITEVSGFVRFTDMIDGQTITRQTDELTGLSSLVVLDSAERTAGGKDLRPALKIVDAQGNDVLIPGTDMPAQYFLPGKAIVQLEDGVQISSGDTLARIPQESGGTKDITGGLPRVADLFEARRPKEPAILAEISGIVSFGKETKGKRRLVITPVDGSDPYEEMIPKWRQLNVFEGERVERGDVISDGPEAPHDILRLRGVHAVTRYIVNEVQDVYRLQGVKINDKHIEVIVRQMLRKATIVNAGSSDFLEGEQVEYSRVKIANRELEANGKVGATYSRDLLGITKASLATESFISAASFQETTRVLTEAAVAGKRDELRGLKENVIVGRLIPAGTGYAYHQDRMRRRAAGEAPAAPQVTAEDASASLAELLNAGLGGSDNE
# T1 sequence (P0A7Z4 whole entry): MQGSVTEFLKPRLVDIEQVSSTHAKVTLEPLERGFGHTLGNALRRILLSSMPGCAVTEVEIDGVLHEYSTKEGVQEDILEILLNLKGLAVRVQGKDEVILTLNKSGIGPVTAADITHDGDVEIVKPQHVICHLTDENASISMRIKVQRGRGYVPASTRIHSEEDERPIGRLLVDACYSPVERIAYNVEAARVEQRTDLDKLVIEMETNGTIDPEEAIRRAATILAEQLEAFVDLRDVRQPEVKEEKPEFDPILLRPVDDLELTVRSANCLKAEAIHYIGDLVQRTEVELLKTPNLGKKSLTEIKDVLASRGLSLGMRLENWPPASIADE
# T1 sequence (P0A800 whole entry): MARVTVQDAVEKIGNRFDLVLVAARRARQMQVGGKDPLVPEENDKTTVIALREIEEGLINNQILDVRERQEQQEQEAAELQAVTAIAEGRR
# Protocol: One common assay involves evaluation of the compounds as RNA polymerase inhibitors. In this assay, buffer (250 mM KCl, 5% glycerol, 10 mM MgCl2, 0.1 mg/ml BSA) is combined with 6 mM β-M.E., PT5 DNA template, and 1.3 μg/rxn Sigma^70 saturated E. coli RNA Polymerase (Epicenter). The compound is then added in a manner not to exceed 5% DMSO. Nucleotide triphosphates are then added at the following concentration: 250 μM ATP, CTP and UTP with 100 μM cold CTP and 50 μM α-^32P CTP. The mixture is incubated for 10 min at about 37° C. A [2×] loading buffer is added and the mixture is then run on a 6% urea denaturing PAGE until bromophenol blue reaches the edge of plate. The gel is soaked (about 20 minutes in 10% MeOH and 10% acetic acid, to remove urea), then dried (about 55 minutes at about 85° C. (BioRad Gel Drier)) and exposed to a Phospho Imaging Plate for 1 hour. The plate is then read on a Fujix Bas1000 Imaging System and quantified using MacBas v2.0 software. An IC50 (in μM) can be calculated as the concentration of a drug which reduces the enzyme activity to 50% of the control.
# In this assay, buffer (250 mM KCl, 5% Glycerol, 10 mM MgCl2, 0.1 mg/ml bovine serum albumin (BSA)) is combined with 6 mM β-mercaptoethanol, PT5 DNA template, and 1.3 μg/rxn Sigma^70 saturated E. coli RNA Polymerase (obtained from Epicenter). The compound is then added in a manner not to exceed 5% DMSO. Nucleotide triphosphates are then added at the following concentration: 250 μM ATP, CTP and UTP with 100 μM cold CTP and 50 μM α-32P CTP. The mixture is incubated for 10 min at about 37° C. A [2×] loading buffer is added and the mixture is then run on a 6% urea denaturing PAGE until bromophenol blue reaches the edge of plate. The gel is soaked (about 20 minutes in 10% MeOH and 10% acetic acid, to remove urea), then dried (about 55 minutes at about 85° C. (BioRad Gel Drier)) and exposed to a Phospho Imaging Plate for 1 hour. The plate is then read on a Fujix Bas1000 Imaging System and quantified using MacBas v2.0 software. An IC50 (in μM) can be calculated as the concentration of a compound of the invention that reduces the enzyme activity to 50% of the control. For the sake of clarity, the above-described assay is used to determine the IC50 values referenced in the claims. However, the skilled artisan will recognize that other methods can be used to determine an IC50 value.
# [4] = tested on: B. su; assay: Minimum Inhibitory Concentration assay, B. su; type: cell-based; settings: LB medium, 16 hours, 37° C.
# Protocol: as §1
# as §1, with “MIC” for “Minimum Inhibitory Concentration (MIC)”
# [5] = Table 1, compounds of Formula 1
SMILES,MIC ([1]; Table 1) [µM],MIC [2] [µM],"IC50 [3, 5] [µM]",MIC ([4]; Table 1) [µM],MIC ([1]; Table 3) [µM],"IC50 ([3]; Table 3, heteroaryl compounds) [µM]",MIC ([4]; Table 3) [µM]
CS(=O)(=O)Nc1ccc(CCNc2ccc(-c3c[nH]nc3-c3ccc(F)cc3)cc2C(F)(F)F)cc1 [Example 23],> 500,> 500,> 500,> 500,–,–,–
NC1CCN(c2ccc(-c3c[nH]nc3-c3ccc(F)cc3)cc2C(F)(F)F)C1 (stereo not shown) [Example 24],< 500,< 500,< 500,< 500,–,–,–
O=C(Nc1ccc(Cl)c(C(F)(F)F)c1)NC1CCN(c2ccc(-c3c[nH]nc3-c3ccc(F)cc3)cc2C(F)(F)F)C1 (stereo not shown) [Example 25],< 500,> 500,< 500,< 500,–,–,–
Fc1ccc(-c2n[nH]cc2-c2cc(F)cc(C(F)(F)F)c2)cc1 [Example 26],< 500,< 500,< 500,< 500,–,–,–
NCCNc1cc(-c2c[nH]nc2-c2ccc(F)cc2)cc(C(F)(F)F)c1 [Example 27],< 500,< 500,< 500,< 500,–,–,–
O=C(NCCNc1cc(-c2c[nH]nc2-c2ccc(F)cc2)cc(C(F)(F)F)c1)c1ccccc1 [Example 28],< 500,< 500,> 500,< 500,–,–,–
O=C(NCCNc1cc(-c2c[nH]nc2-c2ccc(F)cc2)cc(C(F)(F)F)c1)Nc1ccc(Cl)c(C(F)(F)F)c1 [Example 29],< 500,> 500,< 500,< 500,–,–,–
NCCCNc1cc(-c2c[nH]nc2-c2ccc(F)cc2)cc(C(F)(F)F)c1 [Example 30],< 500,< 500,> 500,< 500,–,–,–
O=C(NCCCNc1cc(-c2c[nH]nc2-c2ccc(F)cc2)cc(C(F)(F)F)c1)Nc1ccc(Cl)c(C(F)(F)F)c1 [Example 31],< 500,> 500,< 500,< 500,–,–,–
O=[N+]([O-])c1cccc(-c2c[nH]nc2-c2ccc(F)c(C(F)(F)F)c2)c1 [Example 32],< 500,> 500,< 500,< 500,–,–,–
O=[N+]([O-])c1cccc(-c2c[nH]nc2-c2ccc(N3CCCCC3)c(C(F)(F)F)c2)c1 [Example 33],< 500,> 500,< 500,< 500,–,–,–
Nc1cccc(-c2c[nH]nc2-c2ccc(F)c(C(F)(F)F)c2)c1 [Example 34],< 500,< 500,< 500,< 500,–,–,–
O=C(COc1ccccc1)Nc1cccc(-c2c[nH]nc2-c2ccc(F)c(C(F)(F)F)c2)c1 [Example 35],< 500,> 500,< 500,> 500,–,–,–
CS(=O)(=O)Nc1cccc(-c2c[nH]nc2-c2ccc(F)c(C(F)(F)F)c2)c1 [Example 36],< 500,< 500,< 500,< 500,–,–,–
Cc1c(-c2c[nH]nc2-c2ccc(F)cc2)sc2ccccc12 [Example 37],–,< 500,–,–,< 500,< 500,< 500
Fc1cccc(-c2c[nH]nc2-c2ccsc2)c1 [Example 38],–,< 500,–,–,< 500,< 500,< 500
